The values below are quoted from earlier work in patent US20060068015A1, “Solid dosage form comprising a fibrate and a statin” (priority 2003, published 2006).

Molecules are shown by their SMILES.

The conditions of data set [1]: for solubility in water: water / distilled water.

`CC[C@H](C)C(=O)O[C@H]1C[C@H](O)C=C2C=C[C@H](C)[C@H](CC[C@@H](O)C[C@@H](O)CC(=O)[O-])[C@H]21.[Na+]` (relative stereo) [Pravastatin sodium, 1-naphthalene-heptanoic acid, 1,2,6,7,8,8a-hexahydro-(beta), (beta),6-trihydroxy-2-methyl-8-(2-methyl-1-oxobutoxy)-, monosodium salt, [1S-[1(alpha)((beta)S*,(beta)S*),2(alpha),6(alpha), 8(beta)(R*),8a(alpha)]]-]: in data set [1] (acetone), the solubility in acetone result is given as “practically insoluble”. Besides, the solubility in acetonitrile result in data set [1] (acetonitrile) was “practically insoluble”. In addition, the solubility in chloroform entry in data set [1] (chloroform) is “practically insoluble”. The solubility in ether entry in data set [1] (ether) was “practically insoluble”.

Regarding `CC(C)c1c(C(=O)Nc2ccccc2)c(-c2ccccc2)c(-c2ccc(F)cc2)n1CC[C@@H](O)C[C@@H](O)CC(=O)O` [Atorvastatin], the “systemic availability of HMG-COA reductase inhibitory activity” value (oral administration) was “approximately 30%”.

Turning to `CC(C)(Oc1ccc(C(=O)c2ccc(Cl)cc2)cc1)C(=O)O` [Fenofibric acid], the elimination half-life entry (in vivo) is on record as “about 20 hours”.

Consider `CC[C@H](C)C(=O)O[C@H]1C[C@H](O)C=C2C=C[C@H](C)[C@H](CC[C@@H](O)C[C@@H](O)CC(=O)O)[C@H]21` [Pravastatin], for which the bioavailability result (oral administration) is given as “about 30%”. In data set [1], the solubility in water result is “water-soluble”.

`CC(C)c1nc(N(C)S(C)(=O)=O)nc(-c2ccc(F)cc2)c1/C=C/[C@@H](O)C[C@@H](O)CC(=O)O` [Rosuvastatin]: the bioavailability result (oral administration) is “about 50%”. Also, in data set [1], the solubility in water result was “poor water-solubility”.

Take `CC(C)n1c(/C=C/C(O)CC(O)CC(=O)O)c(-c2ccc(F)cc2)c2ccccc21` (stereo not shown) [fluvastatin]: the solubility in water entry in data set [1] is reported as “water-soluble”.

As for `CC[C@H](C)C(=O)O[C@H]1C[C@@H](C)C=C2C=C[C@H](C)[C@H](CC[C@@H]3C[C@@H](O)CC(=O)O3)[C@H]21` [lovastatin], the solubility in water entry in data set [1] was “poor water-solubility”.

Take `O=C(O)C[C@H](O)C[C@H](O)/C=C/c1c(C2CC2)nc2ccccc2c1-c1ccc(F)cc1` [pitavastatin]: the solubility in water result in data set [1] is “poor water-solubility”.
